# Test results from patent US12729377B2, “RNAi agents and compositions for inhibiting expression of angiopoietin-like 3 (ANGPTL3), and methods of use” (Arrowhead Pharmaceuticals, Inc., priority 2017, dated 2026).
# In the oligonucleotide strings, read from the 5' end, every base follows the letter of its sugar. An asterisk marks phosphorothioate; unmarked linkages are phosphodiester. Other units and linkages are bracketed, terminal groups are in braces. A string of capitals states the bases alone. {NAG37} = tridentate N-acetyl-galactosamine targeting ligand, structure (NAG37)s; [invAb] = inverted abasic unit; m = 2'-O-methyl; f = 2'-fluoro
# Key:
# ANGPTL3 gene = test: Example 10: serum triglycerides in mice; assay type: in vivo; conditions: 0.5 mg/kg single SC injection day 1, female C57bl/6 mice, n=3, ratio to D5W control
# Method: To assess the in vivo activity of further ANGPTL3 RNAi agents that are designed to target position 304 on the ANGPTL3 gene, six- to eight-week-old female C57bl/6 mice were used. Pre-dose serum samples were taken at day −1 after a four hour fast. At day 1, each mouse was given a single subcutaneous administration of 200 μl containing 0.5 mg/kg (mpk) of an ANGPTL3 RNAi agent in D5W (dextrose in 5% water), or control (D5W) with no RNAi agent, according to the dosing groups recited in Table 47.
# Each of the RNAi agents included a modified sequence and an N-acetyl-galactosamine-containing targeting ligand conjugated to the 5′ terminal end of the sense strand. (See Tables 3, 4, and 5 for modified sequences and targeting ligand structures). As noted above, each of the ANGPTL3 RNAi agents dosed in this study included nucleotide sequences designed to target the ANGPTL3 gene at position 304. The injections were performed between the skin and muscle (i.e. subcutaneous injections) into the loose skin over the neck and shoulder area. Three (3) mice in each group were tested (n=3). Serum was collected on days 8, 15, 22, 29, and for some groups on day 36 (i.e., Groups 1, 2, and 9-13 only). Mice were fasted for four hours prior to each collection. ANGPTL3 protein levels in serum were measured by ELISA assay (R&D Systems), according to the manufacturer's recommendations. Triglycerides, total cholesterol, high-density lipoprotein (HDL), and low-density lipoprotein (LDL) in serum were measured on a Cobas® Integra 400 (Roche Diagnostics), according to the manufacturer's recommendations.
# The ANGPTL3 protein levels, triglyceride levels, total cholesterol levels, HDL levels, and LDL levels for each animal were normalized. For normalization, the level of ANGPTL3 protein, triglyceride, HDL, and total cholesterol, respectively, for each animal at a time point, was divided by the pre-treatment level of expression in that animal (in this case at day −1) to determine the ratio of expression “normalized to pre-treatment.” Expression at a specific time point was then normalized to the D5W control group by dividing the “normalized to pre-treatment” ratio for an individual animal by the mean “normalized to pretreatment” ratio of all mice in the D5W control group.
# ANGPTL3 protein = test: Example 14: RNAi agent and statin, serum ANGPTL3 protein by ELISA in LDLR knockout mice; assay type: in vivo, LDLR KO mice
# Text: To evaluate the effect of co-administration of RNAi agents and statins in a disease model, LDLR KO mice were commercially obtained (The Jackson Laboratory). For three weeks prior to the onset of the study, forty-one (41) male 7 to 8 week old LDLR KO mice were placed on a high fat (“western”) diet (Teklad Custom Diets TD.88137), and remained on that diet throughout the duration of the study. Pre-dose serum samples were taken on study Day 1 after a four hour fast. The dosing regimen for the study is recited in the following Table 72:
# • Mice were treated at 40 mg/kg for the first 11 days, then switched to 20 mg/kg thereafter.
# The vehicle used for the oral gavage in the study was a 1:1 mixture of Ora-Plus®: Ora-Sweet® solution, which were acquired commercially. For the preparation of the atorvastatin oral gavage administrations, the respective desired dose of atorvastatin was first dissolved in sterile water (0.3 mL water per 1 mL of desired formulation) and vortexed until smooth, followed by the addition of a mixture of 1:1 Ora-Plus®: Ora-Sweet® solution (0.7 mL vehicle per 1 mL of desired formulation) and vortexed. On day 1 and for each day thereafter an oral gavage dose was administered for each of the Groups except for Group 2. On Day 23, Groups 1, 2, 3, and 4 received a single subcutaneous administration of 2.5 mg/kg dose ([…] solution) of an ANGPTL3 RNAi agent in D5W (dextrose in 5% water), or vehicle control (D5W) with no RNAi agent.
# The RNAi agent tested (AD05488) included a modified sequence and an N-acetyl-galactosamine-containing targeting ligand conjugated to the 5′ terminal end of the sense strand. (See Tables 3, 4, and 5 for modified sequences and targeting ligand structures). The injections were performed between the skin and muscle (i.e. subcutaneous injections) into the loose skin over the neck and shoulder area. Serum was collected on days 8, 15, 22 (pre-RNAi agent injection), 29, 36, 43, and 50. LDLR KO mice were fasted for four hours prior to each collection.
# ANGPTL3 protein levels in serum were measured by ELISA assay (R&D Systems), according to the manufacturer's recommendations. Among other biomarkers, triglycerides, total cholesterol, and low-density lipoprotein (LDL) in serum were measured on a Cobas® Integra 400 (Roche Diagnostics), according to the manufacturer's recommendations.
# The ANGPTL3 protein levels, triglyceride levels, total cholesterol levels, HDL levels, and LDL levels for each animal were normalized. For normalization, respective levels of ANGPTL3 protein, TG, total cholesterol, or LDL for each animal at a time point was divided by the pre-treatment level of expression in that animal (in this case pre-dose levels on Day 1) to determine the ratio of expression “normalized to pre-treatment.” Data from the study set forth in this Example are shown in the following Tables 73-76: […]
substance,measurement,setting,value
"AD05488: RNAi agent duplex: antisense AM07235-AS, sense AM07234-SS (antisense mU*fA*mC*fUmGfAmUfCmAfAmAfUmAfUmGfUmUfGmAfG*mC; sense {NAG37}*[invAb]*mGmCmUmCmAmAmCmAfUfAfUmUmUmGmAmUmCmAmGmUmA*[invAb])",Average Triglycerides Normalized to Pre-Treatmen and Control,ANGPTL3 gene; Day 8,0.646
same,Average Triglycerides Normalized to Pre-Treatmen and Control,ANGPTL3 gene; Day 15,0.669
same,Average Triglycerides Normalized to Pre-Treatmen and Control,ANGPTL3 gene; Day 22,0.723
same,Average Triglycerides Normalized to Pre-Treatmen and Control,ANGPTL3 gene; Day 29,0.739
same,Average Triglycerides Normalized to Pre-Treatmen and Control,ANGPTL3 gene; Day 36,0.843
same,Avg ANGPTL3 normalized to pre-treatment,"ANGPTL3 protein; Group 2: no gavage, 2.5 mg/kg AD05488 SC on day 23, Day 8 (pre-RNAi agent injection)",1.419
same,Avg ANGPTL3 normalized to pre-treatment,"ANGPTL3 protein; Group 2: no gavage, 2.5 mg/kg AD05488 SC on day 23, Day 15 (pre-RNAi agent injection)",1.584
same,Avg ANGPTL3 normalized to pre-treatment,"ANGPTL3 protein; Group 2: no gavage, 2.5 mg/kg AD05488 SC on day 23, Day 22 (pre-RNAi agent injection)",1.658
same,Avg ANGPTL3 normalized to pre-treatment,"ANGPTL3 protein; Group 2: no gavage, 2.5 mg/kg AD05488 SC on day 23, Day 29",0.023
same,Avg ANGPTL3 normalized to pre-treatment,"ANGPTL3 protein; Group 2: no gavage, 2.5 mg/kg AD05488 SC on day 23, Day 36",0.012
same,Avg ANGPTL3 normalized to pre-treatment,"ANGPTL3 protein; Group 2: no gavage, 2.5 mg/kg AD05488 SC on day 23, Day 43",0.020
same,Avg ANGPTL3 normalized to pre-treatment,"ANGPTL3 protein; Group 2: no gavage, 2.5 mg/kg AD05488 SC on day 23, Day 50",0.026
same,Avg ANGPTL3 normalized to pre-treatment,"ANGPTL3 protein; Group 3: 10 mg/kg daily oral gavage atorvastatin, 2.5 mg/kg AD05488 on day 23, Day 8 (pre-RNAi agent injection)",1.597
same,Avg ANGPTL3 normalized to pre-treatment,"ANGPTL3 protein; Group 3: 10 mg/kg daily oral gavage atorvastatin, 2.5 mg/kg AD05488 on day 23, Day 15 (pre-RNAi agent injection)",1.765
same,Avg ANGPTL3 normalized to pre-treatment,"ANGPTL3 protein; Group 3: 10 mg/kg daily oral gavage atorvastatin, 2.5 mg/kg AD05488 on day 23, Day 22 (pre-RNAi agent injection)",1.681
same,Avg ANGPTL3 normalized to pre-treatment,"ANGPTL3 protein; Group 3: 10 mg/kg daily oral gavage atorvastatin, 2.5 mg/kg AD05488 on day 23, Day 29",0.015
same,Avg ANGPTL3 normalized to pre-treatment,"ANGPTL3 protein; Group 3: 10 mg/kg daily oral gavage atorvastatin, 2.5 mg/kg AD05488 on day 23, Day 36",0.005
same,Avg ANGPTL3 normalized to pre-treatment,"ANGPTL3 protein; Group 3: 10 mg/kg daily oral gavage atorvastatin, 2.5 mg/kg AD05488 on day 23, Day 43",0.007
same,Avg ANGPTL3 normalized to pre-treatment,"ANGPTL3 protein; Group 3: 10 mg/kg daily oral gavage atorvastatin, 2.5 mg/kg AD05488 on day 23, Day 50",0.010
same,Avg ANGPTL3 normalized to pre-treatment,"ANGPTL3 protein; Group 4: 20 mg/kg* daily oral gavage atorvastatin (40 mg/kg first 11 days), 2.5 mg/kg AD05488 on day 23, Day 8 (pre-RNAi agent injection)",1.683
same,Avg ANGPTL3 normalized to pre-treatment,"ANGPTL3 protein; Group 4: 20 mg/kg* daily oral gavage atorvastatin (40 mg/kg first 11 days), 2.5 mg/kg AD05488 on day 23, Day 15 (pre-RNAi agent injection)",1.999
same,Avg ANGPTL3 normalized to pre-treatment,"ANGPTL3 protein; Group 4: 20 mg/kg* daily oral gavage atorvastatin (40 mg/kg first 11 days), 2.5 mg/kg AD05488 on day 23, Day 22 (pre-RNAi agent injection)",1.675
same,Avg ANGPTL3 normalized to pre-treatment,"ANGPTL3 protein; Group 4: 20 mg/kg* daily oral gavage atorvastatin (40 mg/kg first 11 days), 2.5 mg/kg AD05488 on day 23, Day 29",0.022
same,Avg ANGPTL3 normalized to pre-treatment,"ANGPTL3 protein; Group 4: 20 mg/kg* daily oral gavage atorvastatin (40 mg/kg first 11 days), 2.5 mg/kg AD05488 on day 23, Day 36",0.004
same,Avg ANGPTL3 normalized to pre-treatment,"ANGPTL3 protein; Group 4: 20 mg/kg* daily oral gavage atorvastatin (40 mg/kg first 11 days), 2.5 mg/kg AD05488 on day 23, Day 43",0.005
same,Avg ANGPTL3 normalized to pre-treatment,"ANGPTL3 protein; Group 4: 20 mg/kg* daily oral gavage atorvastatin (40 mg/kg first 11 days), 2.5 mg/kg AD05488 on day 23, Day 50",0.010
same,reduction in ANGPTL3 protein levels,"ANGPTL3 protein; single 2.5 mg/kg subcutaneous on Day 23, LDLR KO mice on high fat diet",clear reduction
